Consider 27 compounds from PubChem BioAssay (NCI).

Values joined by “and” are separate entries in the source; they are usually repeats but may differ in a detail not shown here. Equal entries are not always repeated.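 Where inhibition never reached the appropriate level, the endpoint shown equals the highest concentration tested. Otherwise, values were interpolated linearly from a five-concentration, 48-hour dose response in 96-well plates. The concentration for 50% growth inhibition is given as GI50. At the TGI there is no net growth.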 Where only a bound is given, the exact number is not on record here.

For one assay, the system named is 786-0 renal. Briefly: inhibition of tumour cell growth, NCI panel, 48 h.
With `C=CCO[C@H]1CO[C@H]2[C@@H]1OC[C@@H]2Oc1ccc(Nc2ccnc(Nc3ccc(O[C@H]4CO[C@H]5[C@@H]4OC[C@@H]5OCC=C)c(Cl)c3)n2)cc1Cl`, the GI50 was 1.87 µM and the TGI was found to be 3.37 µM.
Regarding `O=C(O)CCC(NC(=O)c1ccc(Nc2nc3ccccc3nc2-c2cccs2)cc1)C(=O)O` (stereo not given), the TGI is greater than 100 µM.
Still for that read-out and setting: in the case of `COc1cc2ccnc([C@@H](OC(=O)c3ccccc3)c3ccc(OC)c(OC)c3OC)c2cc1OC` it was greater than 100 µM; in that of `CCn1c(C)nn2c(=O)c3ccccc3nc2c1=O`, greater than 100 µM; in that of `COC(=O)/C(C#N)=C1\NC(=O)c2ccccc21`, greater than 100 µM.
The same measure, in the same setting: in the case of `O=C(O)CCNCCCNCCC(=O)O` it was greater than 100 µM.
Regarding `CC(=O)[CH-]C(=O)c1ccccc1.CC(=O)[CH-]C(=O)c1ccccc1.CN(C)c1ccc([O-])cc1.CN(C)c1ccc([O-])cc1.Cl.[Ti+4]`, the GI50 is 22.8 µM and the TGI is greater than 31.6 µM.
With `NC1=NCCC1(c1ccccc1)c1ccccn1` (stereo not given), the TGI was greater than 100 µM.
Compound `CCCCCCCCCCCC(=O)OCCOCCOCCOCCOCCOCc1ccccc1` showed a TGI greater than 100 µM.
As for `CCCCCCCCCCCCCC(=O)OC(/C=C/C(C)C)C(O)C(O)C(OC)C(=O)NC1CCCCN(C)C1=O` (stereo not given), the TGI is 5.94 µM and > 49 µM.
`CCOC(=O)CCC1(C(=O)OCC)CCCCC1=O` (stereo not given): the TGI is greater than 100 µM.
Compound `COC(=O)c1ccccc1NC(=O)C(=O)Cc1nc2c3c(ccc2[nH]c1=O)C(=O)c1ccccc1C3=O` had a TGI of 74.2 µM.
As to `CCOC(=O)C(C)(C)Oc1ccc2c(-c3ccccc3)cc(=O)oc2c1`, the TGI is greater than 100 µM.
Still for that read-out and setting: to `CCCC1C(=O)CCc2c(OC)ccc(OC)c21` (stereo not given) belongs greater than 100 µM; to `NC(=O)NO.O.O.O.O.O.O.O.O.O.O.O.[Ge].[Ge].[Ge].[Ge].[Ge].[O]=[Ge].[O]=[Ge].[O]=[Ge].[O]=[Ge].[O]=[Ge][OH]`, greater than 100 µM.
On to `O=C(Nc1nc2ccc([N+](=O)[O-])cc2s1)C(=O)C(C1OC(=O)c2ccccc21)[N+](=O)[O-]` (stereo not given), for which the TGI was greater than 100 µM.
As to `CCC[CH2][Sn]([CH2]CCC)([S]c1cccc2cccnc12)[S]c1cccc2cccnc12`, the GI50 was 0.227 µM and the TGI is 0.56 µM.
As for `COC(=O)C1(C(C)C)CCc2c(OC)ccc(OC)c2C1=O` (stereo not given), the TGI was greater than 100 µM.

Another assay has as its system A498 renal. Briefly: inhibition of tumour cell growth, NCI panel, 48 h.
In turn, `Cc1c(C(=O)CC(=O)C(=O)Nc2ccccc2C(F)(F)F)[n+](=O)c2ccccc2n1[O-]` had a TGI greater than 100 µM.
On to `Cc1cc(N(CCC#N)CCC#N)ccc1N=Nc1ccc(S(N)(=O)=O)cc1`, for which the TGI is greater than 100 µM.
Same read-out and setting: in the case of `O=C(CCc1nc(=S)[nH][nH]1)Nc1cc(Cl)c(Cl)cc1Cl` it was greater than 100 µM.
For `CN(C)C(=S)N=C(Nc1ccccc1)Nc1ccccc1`, the TGI is greater than 100 µM.
`Nc1ccccc1S(=O)(=O)N(CC(=O)O)c1ccccc1` yielded a TGI greater than 100 µM.
Still for that read-out and setting: in the case of `CC1(C)C(=O)/C=C\C(=O)C(C)(C)C2=CC=C(O2)C(C)(C)C(=O)/C=C\C(=O)C(C)(C)C2=CC=C1O2` it was greater than 100 µM; in that of `COc1ccccc1N1C(=O)C2c3[nH]c4ccccc4c3C3CCC(C(C)(C)C)CC3C2C1=O` (stereo not given), greater than 100 µM.
With `Cc1cc(NS(=O)(=O)c2ccc(Nc3c4ccccc4nc4c(C(=O)N5CCN(CCOS(C)(=O)=O)CC5)cccc34)cc2)no1`, the TGI was greater than 100 µM.
`O=C(O)CCC(NC(=O)c1ccc(Nc2nc3ccccc3nc2-c2cccs2)cc1)C(=O)O` (stereo not given): the TGI is greater than 100 µM.
Still for that read-out and setting: in the case of `COc1cc2ccnc([C@@H](OC(=O)c3ccccc3)c3ccc(OC)c(OC)c3OC)c2cc1OC` it was greater than 100 µM; in that of `CCn1c(C)nn2c(=O)c3ccccc3nc2c1=O`, greater than 100 µM; in that of `COC(=O)/C(C#N)=C1\NC(=O)c2ccccc21`, greater than 100 µM.
Regarding `O=C(O)CCNCCCNCCC(=O)O`, the TGI is greater than 100 µM.
Turning to `CC(=O)[CH-]C(=O)c1ccccc1.CC(=O)[CH-]C(=O)c1ccccc1.CN(C)c1ccc([O-])cc1.CN(C)c1ccc([O-])cc1.Cl.[Ti+4]`, the GI50 is 31.1 µM and the TGI is greater than 100 µM.
`NC1=NCCC1(c1ccccc1)c1ccccn1` (stereo not given) had a TGI greater than 100 µM.
On the same count and under the same terms, in the case of `CCCCCCCCCCCC(=O)OCCOCCOCCOCCOCCOCc1ccccc1` it was greater than 100 µM.
As for `CCCCCCCCCCCCCC(=O)OC(/C=C/C(C)C)C(O)C(O)C(OC)C(=O)NC1CCCCN(C)C1=O` (stereo not given), the GI50 is greater than 49 µM; the TGI was 32.5 µM and > 49 µM.
Consider `CCOC(=O)CCC1(C(=O)OCC)CCCCC1=O` (stereo not given), for which the TGI was greater than 100 µM.
`COC(=O)c1ccccc1NC(=O)C(=O)Cc1nc2c3c(ccc2[nH]c1=O)C(=O)c1ccccc1C3=O` displayed a TGI greater than 100 µM.
Still for that read-out and setting: to `CCOC(=O)C(C)(C)Oc1ccc2c(-c3ccccc3)cc(=O)oc2c1` belongs greater than 100 µM; to `CCCC1C(=O)CCc2c(OC)ccc(OC)c21` (stereo not given), greater than 100 µM.
Turning to `NC(=O)NO.O.O.O.O.O.O.O.O.O.O.O.[Ge].[Ge].[Ge].[Ge].[Ge].[O]=[Ge].[O]=[Ge].[O]=[Ge].[O]=[Ge].[O]=[Ge][OH]`, the TGI was greater than 100 µM.
As to `O=C(Nc1nc2ccc([N+](=O)[O-])cc2s1)C(=O)C(C1OC(=O)c2ccccc21)[N+](=O)[O-]` (stereo not given), the TGI amounted to 45 µM.
For `CCC[CH2][Sn]([CH2]CCC)([S]c1cccc2cccnc12)[S]c1cccc2cccnc12`, the GI50 was 0.254 µM and the TGI is 0.6 µM.
Consider `COC(=O)C1(C(C)C)CCc2c(OC)ccc(OC)c2C1=O` (stereo not given), for which the TGI was greater than 100 µM.

A further assay relates to SK-OV-3 ovarian. Briefly: inhibition of tumour cell growth, NCI panel, 48 h.
Compound `Cc1c(C(=O)CC(=O)C(=O)Nc2ccccc2C(F)(F)F)[n+](=O)c2ccccc2n1[O-]` showed a TGI greater than 100 µM.
Take `Cc1cc(N(CCC#N)CCC#N)ccc1N=Nc1ccc(S(N)(=O)=O)cc1`: the TGI is greater than 100 µM.
Take `Cc1nc2c(ccc3ncccc32)[nH]1`: the TGI is greater than 100 µM.
Same read-out and setting: to `O=C(CCc1nc(=S)[nH][nH]1)Nc1cc(Cl)c(Cl)cc1Cl` belongs greater than 100 µM; to `CN(C)C(=S)N=C(Nc1ccccc1)Nc1ccccc1`, greater than 100 µM.
The compound `Nc1ccccc1S(=O)(=O)N(CC(=O)O)c1ccccc1` gave a TGI greater than 100 µM.
The compound `CC1(C)C(=O)/C=C\C(=O)C(C)(C)C2=CC=C(O2)C(C)(C)C(=O)/C=C\C(=O)C(C)(C)C2=CC=C1O2` yielded a TGI greater than 100 µM.
For the compound `COc1ccccc1N1C(=O)C2c3[nH]c4ccccc4c3C3CCC(C(C)(C)C)CC3C2C1=O` (stereo not given), the TGI was greater than 100 µM.
Still for that read-out and setting: in the case of `Cc1cc(NS(=O)(=O)c2ccc(Nc3c4ccccc4nc4c(C(=O)N5CCN(CCOS(C)(=O)=O)CC5)cccc34)cc2)no1` it was greater than 100 µM.
On to `C=CCO[C@H]1CO[C@H]2[C@@H]1OC[C@@H]2Oc1ccc(Nc2ccnc(Nc3ccc(O[C@H]4CO[C@H]5[C@@H]4OC[C@@H]5OCC=C)c(Cl)c3)n2)cc1Cl`, for which the GI50 is 16.8 µM and the TGI was determined as 31.2 µM.
In turn, `O=C(O)CCC(NC(=O)c1ccc(Nc2nc3ccccc3nc2-c2cccs2)cc1)C(=O)O` (stereo not given) displayed a TGI greater than 100 µM.
Consider `COc1cc2ccnc([C@@H](OC(=O)c3ccccc3)c3ccc(OC)c(OC)c3OC)c2cc1OC`, for which the TGI was greater than 100 µM.
In the case of `CCn1c(C)nn2c(=O)c3ccccc3nc2c1=O`, the TGI was greater than 100 µM.
In turn, `COC(=O)/C(C#N)=C1\NC(=O)c2ccccc21` yielded a TGI greater than 100 µM.
`O=C(O)CCNCCCNCCC(=O)O` had a TGI greater than 100 µM.
